From US20150025233A1, “USE OF LIPID CONJUGATES IN THE TREATMENT OF DISEASES” (priority 2001, published 2015)
Read-outs that look alike come from different tables or passages of the source.

Test system: DTH-induced mice
Test: Dermal DTH response, oxalozone-induced ear swelling in mice (Experiments 5.1-5.4)
Type: in vivo, mouse
Conditions: for inhibition at 3 µmol/kg: Mus musculus
Experimental: Three modes of administration were performed: 1) The Lipid-conjugate in saline was injected intraperitoneally daily beginning day 0 until day 6 (Table 5.1); 2) The Lipid-conjugate in saline was injected subcutaneously into the ear (adjacent to the challenged area) in two injections, either 3 h before application of oxalozone to the ear or 1 h after application of oxalozone to the ear (Table 5.2); 3) EtOH:H2O 1:1 was applied topically to both ears on top of the challenged area daily beginning day 0 until day 6 (Table 5.3); 4) the Lipid-conjugate was applied topically only to the right ear for 5 times 4-6 hours following the challenge (Table 5.4) using either 20 μL of 0.1% DEXPE in 50% EtOH or 20 μl of Dermovat (steroid ointment). In all experiments control Group A (late sensitized only) was treated by topical application of oxalozone to both sides of the ear 24 hours before measuring its swelling. […] Of particular interest are the results presented in Table 5.4, showing that although the topical administration of the drug was unilateral in both cases, the steroid affected both ears, while the topically applied Lipid-conjugate affected only the area to which it was applied, indicative of a lack of systemic infiltration of the Lipid-conjugate in this context.

[1] = Intraperitoneal, fully sensitized, 5 mg (15 μmol/kg)
[2] = Subcutaneous, fully sensitized, 1 mg (3 μmol/kg)
[3] = Unilateral topical, on right ear only, 3 μmol/kg, dermovat

C[C@H]1C[C@H]2[C@@H]3CCC4=CC(=O)C=C[C@]4(C)[C@@]3(F)[C@@H](O)C[C@]2(C)[C@@]1(O)C(=O)CO [betamethasone]
Percent inhibition of ear swelling [1]: 74%
Swelling after sensitization - Swelling of normal ear, Mean ± S.D. (n = 12) [1]: 6.5 ± 1.35 0.1 mm
inhibition at 3 µmol/kg (Topical, fully sensitized, 3 μmol/kg, read-out: Percent inhibition of ear swelling): 60%
inhibition at 3 µmol/kg (Unilateral topical, on right ear only, 3 μmol/kg, dermovat, read-out: Percent inhibition, Left ear): 63%
inhibition at 3 µmol/kg (Unilateral topical, on right ear only, 3 μmol/kg, dermovat, read-out: Percent inhibition, Right ear): 63%
Percent inhibition of ear swelling [2]: 72%
Swelling after sensitization - Swelling of normal ear, Mean ± S.D. (n = 12) [2]: 8.1 ± 1.19 0.1 mm
Swelling after sensitization - Swelling of normal ear, Mean ± S.D. (n = 12) (Topical, fully sensitized, 3 μmol/kg): 10.6 ± 0.84 0.1 mm
Swelling after sensitization - Swelling of normal ear, Left ear, Mean ± S.D. (n = 10) [3]: 7.0 ± 1.0 0.1 mm
Swelling after sensitization - Swelling of normal ear, Right ear, Mean ± S.D. (n = 10) [3]: 7.0 ± 1.0 0.1 mm
